{
  "source": "patent US20210346368A1",
  "about": "“ANTIBIOTIC SOLUTION AND METHOD OF INJECTION TO PREVENT OPHTHALMIC INFECTIONS” (priority 2017, published 2021)",
  "test": "injection of moxifloxacin antibiotic solution into the anterior segment of the eye during surgery to prevent endophthalmitis",
  "type": "in vivo",
  "method": "Further details regarding the structure, preparation, and physical properties of moxifloxacin are provided in U.S. Pat. Nos. 4,990,517 and 5,607,942, and German application DE19937116, all of which are incorporated herein by reference. In one embodiment, the antibiotic solution may comprise […] of cyanocobalamin, or an amount sufficient to tint or color the resulting antibiotic solution. The antibiotic solution may further comprise any suitable carrier fluid (e.g., liquid diluents such as water, ethyl alcohol, or propylene glycol), so long as the resulting solution has osmotic values that are compatible with the aqueous humor of the eye and ophthalmic tissues. In one embodiment, the antibiotic solution is prepared and stored in a single-dose vial, without the need for preservatives. This allows the surgeon to provide an accurate concentration in sterile environments. Further, due to the antibiotic solution comprising cyanocobalamin, the resulting antibiotic solution is red in color. This provides a visual enhancement to the surgeon when injecting into the eye. For example, a surgeon would inject around 0.3 milliliters of the antibiotic solution (e.g., solution comprising moxifloxacin and cyanocobalamin) into the anterior segment of the eye during the intraoperative portion of cataract surgery. […]",
  "data": [
    {"compound": "COc1c(N2C[C@@H]3CCCN[C@@H]3C2)c(F)cc2c(=O)c(C(=O)O)cn(C3CC3)c12", "note": "[moxifloxacin]", "values": [
      {"measurement": "effectiveness (preliminary results)", "setting": "200 micrograms to 600 micrograms of moxifloxacin injected into the eye", "result": "effective"},
      {"measurement": "risk of endophthalmitis", "setting": "moxifloxacin injected into the anterior segment of the eye", "result": "significantly reduced or eliminated altogether"}
    ]}
  ]
}
